The values that follow come from patent US5530138A, “Compounds and use thereof” (priority 1993, dated 1996).

In the first test the target is T1, binding of 3H-pirenzepine to brain homogenate of rat (Rattus norvegicus, UniProt P08482).
T1 construct: from tissue; host or cells: brain of male SD rats, cerebellum removed; supernatant of 1000×g, re-homogenized
T1 sequence (P08482 1-460): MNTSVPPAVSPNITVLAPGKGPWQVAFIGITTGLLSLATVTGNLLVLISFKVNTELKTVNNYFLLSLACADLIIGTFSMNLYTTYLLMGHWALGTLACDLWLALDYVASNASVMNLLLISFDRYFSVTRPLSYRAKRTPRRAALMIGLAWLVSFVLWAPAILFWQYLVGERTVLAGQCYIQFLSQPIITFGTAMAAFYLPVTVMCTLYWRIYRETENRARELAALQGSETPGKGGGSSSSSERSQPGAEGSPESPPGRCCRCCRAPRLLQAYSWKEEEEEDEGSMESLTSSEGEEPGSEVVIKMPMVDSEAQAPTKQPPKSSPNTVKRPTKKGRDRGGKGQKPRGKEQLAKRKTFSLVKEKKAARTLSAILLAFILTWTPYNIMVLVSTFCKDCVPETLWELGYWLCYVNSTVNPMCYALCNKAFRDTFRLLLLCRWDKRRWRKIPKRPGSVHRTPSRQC
Put plainly: Inhibition against binding of 3H-pirenzepine to brain homogenate of rat. The settings on record: 2.0 nM 3H-pirenzepine; rat brain homogenate without cerebellum; 550 mM phosphate buffer pH 7.4; 60 minutes at room temperature; read-out: 50% inhibition (IC50) against binding of 3H-pirenzepine to brain homogenate. The protocol: (Inhibition against binding of 3H-pirenzepine to brain homogenate of rat)
A brain homogenate of rat was prepared in accordance with the method described by Yamanura and Synder ["Proc. Natr. Acad. Sci. USA", Vol. 71, pages 1725-1729 (1974)]. Namely, SD male rats were killed by decapitation to exentrate each brain. From the brains, each cerebellum was removed and 0.32 M aqueous sucrose solution in 10-folds by volume was added under ice-cooling condition to homogenize the same by a Potter-Elvehjem type glass homogenizer. The resulting homogenate was centrifuged for 10 minutes (1000×g) to obtain a supernatant by removing a precipitate, which supernatant was further homogenized by a homogenizer of "Polytron" to obtain a fraction to be used as a brain homogenate.
Tests were carried out according to the method described by Flynn and Mash ["J. Pharm. Exp. Ther.", Vol. 250, pages 573-581 (1989). Namely, to the brain homogenate (0.035 ml, protein content: 0.6 mg), 550 mM phosphate buffer (pH 7.4, 1 ml) containing 2.0 nM ^3 H-pirenzepine and a Test or Control compound (1 ml, if the test or control compound is solid form, it is dissolved by the 550 mM phosphate buffer) were added to cause a reaction for 60 minutes at room temperature. Then, an ice-cooled buffer (3.0 ml) same with the above was added to the reaction mixture. Thereafter, the mixture was filtrated by a Whattman GF/B filter which was previously dipped in 0.1% polyethyleneimine solution for 60 minutes. The filter was washed twice by the buffer solution (each 3.0 ml) and an emulsion scintillatot for measuring luminescence by a scintillation counter. A 50% inhibition (IC50)of the test or control compound against binding of 3H-pirenzepine to brain homogenate was calculated.
As usually defined, the IC50 is the point on the concentration scale where inhibition reaches its midpoint. As for `Fc1ccccc1NCCC12CCCN1CCC2` [Example 31, N-[2-(1-Azabicyclo[3.3.0]octan-5-yl)ethyl]-2-fluoroaniline], the 50% inhibitory concentration (IC50) was 1590 nM.
Still for that read-out and setting: for `O=[N+]([O-])c1ccccc1NCCC12CCCN1CCC2` [Example 23, N-[2-(1-Azabicyclo[3.3.0]octan-5-yl)ethyl]-2-nitroaniline] the value was 100 nM; for `CN(CCC12CCCN1CCC2)c1ccccc1[N+](=O)[O-]` [Example 25, N-[2-(1-Azabicyclo[3.3.0]octan-5-yl)ethyl]-N-methyl-2-nitroaniline], 200 nM; for `CN(CC12CCCN1CCC2)c1ccc(Cl)c2ccccc12` [Example 1, 1-[N-(1-Azabicyclo[3.3.0]octan-5-yl)methyl-N-methylamino]-4-chloronaphthalene], 10 nM.
Same read-out and setting: to `O=[N+]([O-])c1cc(F)ccc1NCCC12CCCN1CCC2` [Example 32, N-[2-(1-Azabicyclo[3.3.0]octan-5-yl)ethyl]-4-fluoro-2-nitroaniline] belongs 690 nM; to `CN(CC12CCCN1CCC2)c1ccccc1[N+](=O)[O-]` [Example 17, N-(1-azabicyclo[3.3.0]octan-5-yl)methyl-N-methyl-2-nitroaniline], 200 nM.
Regarding `CN(CC12CCCN1CCC2)c1ccccc1-c1ccccc1` [Example 20, N-(1-Azabicyclo[3.3.0]octan-5-yl)methyl-N-methyl-2-phenylaniline], the IC50 was 100 nM.
Still for that read-out and setting: for `CN(CC12CCCN1CCC2)c1ccc(F)c2ccccc12` [Example 8, 1-[N-(1-Azabicyclo[3.3.0]octan-5-yl)methyl-N-methylamino]-4-fluoronaphthalene] the value was 20 nM.
Same read-out and setting: to `O=[N+]([O-])c1ccccc1NCCC12CCCN1CCC2` [Example 36, N-[2-(1-Azabicyclo[3.3.0]octan-5-yl)ethyl]-2-nitroaniline(fumarate)] belongs 90 nM; to `COc1ccc(N(C)CC23CCCN2CCC3)c2ccccc12` [Example 3, 1-[N-(1-Azabicyclo[3.3.0]octan-5-yl)methyl-N-methylamino]-4-methoxynaphthalene], 90 nM; to `N#Cc1ccccc1NCCC12CCCN1CCC2` [Example 27, 2-[2-(1-Azabicyclo[3.3.0]octan-5-yl)ethylamino]benzonitrile], 320 nM.
As for `N#Cc1ccccc1NCC12CCCN1CCC2` [Example 34, 2-[(1-Azabicyclo[3.3.0]octan-5-yl)methylamino]benzonitrile], the half-maximal inhibitory concentration (IC50) amounted to 550 nM.
On the same count and under the same terms, to `C=C1CC2(CCN(C)CC2)OC1C` (stereo not drawn) [2,8-Dimethyl-3-methylene-1-oxa-8-azabicyclo-[4.5]decane, reference compound] belongs 23600 nM.
Still for that read-out and setting: for `Clc1ccccc1NCCC12CCCN1CCC2` [Example 30, N-[2-(1-Azabicyclo[3.3.0]octan-5-yl)ethyl]-2-chloroaniline] the value was 430 nM; for `N#Cc1ccc(NCCC23CCCN2CCC3)cc1` [Example 28, 4-[2-(1-Azabicyclo[3.3.0]octan-5-yl)ethylamino]-benzonitrile], 4570 nM.
Same read-out and setting: for `CN(CC12CCCN1CCC2)c1cccc2ccccc12` [Example 6, 1-[N-(1-Azabicyclo[3.3.0]octan-5-yl)methyl-N-methylamino]-naphthalene] the value was 30 nM; for `CN(CCC12CCCN1CCC2)c1ccccc1C#N` [Example 29, 2-{[2-(1-Azabicyclo[3.3.0]octan-5-yl)ethyl]methylamino}-benzonitrile], 240 nM.
As for `CCN(CC12CCCN1CCC2)c1ccc([N+](=O)[O-])c2ccccc12` [Example 12, 1-[N-(1-azabicyclo[3.3.0]octan-5-yl)methyl-N-ethylamino]-4-nitronaphthalene], the 50% inhibitory concentration (IC50) was found to be 200 nM.
The same measure, in the same setting: for `O=CN(CC12CCCN1CCC2)c1ccccc1` [Example 13, N-(1-azabicyclo[3.3.0]octan-5-yl)methyl-N-formylaniline] the value was 300 nM.

The test is the same for the next values; noted with them: read-out: 50% inhibition (IC50) against binding of 3H-pirenzepine to brain homogenate; 2.0 nM 3H-pirenzepine; rat brain homogenate without cerebellum; 550 mM phosphate buffer pH 7.4; 60 minutes at room temperature.
On to `NC(=O)c1ccccc1NCCC12CCCN1CCC2` [Example 33, 2-{[2-(1-Azabicyclo[3.3.0]octan-5-yl)ethyl]amino}benzamide], for which the IC50 worked out at 1110 nM.

For a further test, the system named is acetylchotine esterass.
Assay: not given
The conditions noted are these: background; cited from earlier work.
For `Nc1c2c(nc3ccccc13)CCCC2` [THA, 1,2,3,4tetrahydro-9-aminoacridine], the “inhibition to acetylcholine esterase” value is given as “its action cannot be said as powerful”.
